Source: paper PMC9256669, “Monomethyl auristatin antibody and peptide drug conjugates for trimodal cancer chemo-radio-immunotherapy” (Nature Communications, 2022)
Where “and” joins values, the source holds several entries; their conditions need not be identical. Equal values may be shown once.

Assays:
[1] = Tumor drug measurement (MMAE by LC-MS/MS) after CDX3379-MMAE; type: in vivo, mouse; parameters: unit not given here; conditions: orthotopic CAL27 tongue xenografts (methods: CAL27 PIK3CA H1047R cells, NOD SCID), 2.5 nmoles CDX3379-MMAE i.v., tumors harvested 48 h, one value per tumor, vehicle 1.606, 2.873, a reviewer reads roughly 100 nM
Description: For CDX3379-MMAE drug measurements, 6-week-old female NOD SCID (University of California San Diego Animal Care Program) were injected orthotopically into the tongue with 150,000 CAL27 PIK3CA H1047R expressing cells in 20 µl of DMEM. After 10 days, mice were intravenously (i.v.) injected through the tail vein with 2.5 nmole of CDX3379-MMAE in 50 µl of PBS. […] Tumors were excised on days indicated in figure legends, weighed, and homogenized in 10 v/w of 2% acetic acid in 1:1 acetonitrile:water with a point sonicator (Fisher Scientific) using an amplitude range of 5–15% for 20 s on ice. Homogenates were centrifuged ([…], 10 min), supernatants collected for drug concentration measurements using LC–MS/MS. Drug concentration was determined by LC–MS/MS with Luna-2 C18 column and Agilent Trap XCT mass spectrometer. For MMAE tissue concentrations, integrated ion currents for m/z 682.4, 496.4 and m/z 686.4, 506.4 extracted from fragmented m/z 740.4 and 718.4, respectively, were combined. The total ion current was fit to a standard curve generated for each drug to quantitate tissue drug concentration.

[2] = system: MOC2 tumors; assay: Orthotopic syngeneic tongue tumor therapy, tumor volumes; type: in vivo, C57BL/6 mice; conditions: single 2.5 nmole i.v. injection
Excerpt: (§1) Orthotopic tongue xenograft tumors were established in 6-week-old NOD SCID mice by injecting 150,000 CAL27 parental (WT) or PIK3CA H1047R-expressing cells. […] On the last day of tumor xenograft measurements, mice were euthanized, tongues resected, imaged, and fixed. […] IR was delivered as 2 parallel opposed fields.
6-week-old C57BL/6 female mice were implanted with 50,000 MOC2 cells into the tongue. […] Five days after treatment, tumors were isolated, minced, and re-suspended in FBS-free DMEM media supplemented with components of MACs tumor dissociation kit. Tissues were incubated for 15 min at 37 °C and mechanically digested using the gentle MACs Octo Dissociator. Digested samples were then passed through a 100-µm strainer to acquire a single-cell. For viability staining, cells were washed in PBS and stained with Cell-ID Cisplatin (DVS Sciences) to a final concentration of 5 μM for 5 min at room temperature. Cisplatin was quenched when cells were washed and stained with the antibody cocktail. Antibodies were prepared in Maxpar cell staining buffer (PBS with 2 mM EDTA, 0.1% BSA, 0.05% NaN3) and incubated with cells for 15 min at room temperature. […] Antibodies (clone in parenthesis) used for CyTOF included B220 (RA3-6B2), CD117(2B8), CD11c (N418), CD25 (3C7), CD4 (RM4-5), CD45 (30-F11), CD8a (53-6.7), MHC-II (M5/114.15.2), NKP46 (29A1.4), TCRb (H57-597) from Fluidigm. […]

[3] = system: CAL27 parental (WT) tumors; assay: Orthotopic tongue tumor xenograft therapy; type: in vivo, human cells in NOD SCID mice; conditions: single 2.5 nmole injection
Excerpt: as §1, with “fields. […]” for “fields.”
(§2) Tumor cells Ab/ADC Ab/ADC CDX3379-MMAE
(§3) Supplementary Figure 7: CDX3379-MMAE ADC efficacy in tumor xenografts.
(§4) CAL27 parental (WT) or HER3 resistant (PIK3CA H1047R) tumor xenografts established in murine tongues on day 0. a) On day 7, mice i.v. injected with 2.5 nmoles […]
(§5) On the last day of tumor measurement
(§6) (day 16 for WT, day 14 for PIK3CA H1047R tumors), tongues resected, fixed and sectioned. Tissues stained for Ki-67 (Abcam, ab16667) by IHC and counterstained with hematoxylin. Data is representative of 6 independent tumors per tumor cell line and treatment. b) Mice with orthotopic tongue CAL27 PIK3CA H1047R tumors were […]
(§7) MMAE ADC on day 6 and day 8 (n= 6 tumors/group). On the last day of tumor measurements, tongues were resected, fixed, longitudinally sectioned and H&E stained.
(§8) Source data are provided in Source Data file.
(§9) (also on this page, place not known: CAL27-WT CAL27-Resistant UntreatedCDX3379CDX3379 -MMAE 07142128 volume (mm3) Tumor tipTongue a)On i.v.injected)

[4] = system: CAL27 resistant (PIK3CA H1047R) tumors; assay: Orthotopic tongue tumor xenograft therapy; type: in vivo, human cells in NOD SCID mice; conditions: PIK3CA H1047R-expressing CAL27 orthotopic tongue tumors
Excerpt: as §1, with “fields. […]” for “fields.”
as §2, §3, §4, §5, §6, §7, §8, §9

For “CDX3379-MMAE: anti-HER3 antibody CDX3379 with 4 MMAE per antibody via MC-VC-PABC linker, labeled with Cy5”, the “Tumor MMAE concentration” value [1] was 124.8 and 143.8 and 123.3 and 91.37, the tumor growth [2] was “modest tumor growth delay” and the “tumor growth (tumor volume, Ki-67)” value [3] was “further enhanced”. The tumor growth [4] was “significant growth delay”.
